From patent US12252457B2, “Compositions and methods for reducing tactile dysfunction, anxiety, and social impairment” (President and Fellows of Harvard College, priority 2018, dated 2025)
Like-named read-outs stand apart in the source and are kept apart here.

Legend:
Transporter, GABA [1] = molecular target: T1, Transporter, GABA (Rattus norvegicus, UniProt P23978); conditions: reference compound, historical value; cited from earlier work
T1 construct: tissue Eurofins Panlabs 226400; host or cells: rat brain membranes (own knowledge of the vendor's assay and of the cited Shank et al. 1990 method)

Transporter, GABA [2] = molecular target: T1, Transporter, GABA; experiment: GABA transporter radioligand binding assay (Cat # 226400); conditions: reference compound, batch 424211; read-out: Concurrent IC50
Procedure: The activity of compound Compound 5 was evaluated in Radioligand Binding assays. Methods employed herein have been adapted from the scientific literature to maximize reliability and reproducibility. Reference standards were run as an integral part of each assay to ensure the validity of the results obtained. Where presented, IC50 values were determined by a non-linear, least squares regression analysis using MathIQ™ (ID Business Solutions Ltd., UK). Where inhibition constants (K) are presented, the Ki values were calculated using the equation of Cheng and Prusoff (Cheng, Y., Prusoff, W. H., Biochem. Pharmacol. 22:3099-3108, 1973) using the observed IC50 of the tested compound, the concentration of radioligand employed in the assay, and the historical values for the KD of the ligand (obtained experimentally at Eurofins Panlabs, Inc.). Where presented, the Hill coefficient (nH), defining the slope of the competitive binding curve, was calculated using MathIQ™. […] Where IC50, Ki and/or nH data are presented without Standard Error of the Mean (SEM), data are insufficient to be quantitative.
Biochemical assay results are presented as the percent inhibition of specific binding or activity. All other results are expressed in terms of the quantitation method of that assay. For primary assays, only the lowest concentration with a significant response, judged by the criteria of the assay, is shown in this summary. […] Unless otherwise requested, primary screening in duplicate with quantitative data (e.g., IC50±SEM, Ki ±SEM and nH) are shown where applicable for individual requested assays.
J Neurochem. 54:2007-2015.

[3] = tested on: genetic and environmental mouse models of ASD; experiment: Tactile PPI, air puff response and startle amplitude after acute midazolam or isoguvacine in ASD mouse models; type: in vivo; conditions: 2 mg/kg i.p.
Procedure: FIGS. 19A-19N show acute administration of the peripherally-restricted GABAA receptor agonist isoguvacine improves tactile hypersensitivity in five genetic and one environmental model of ASD. […] Two-way ANOVA with post-hoc Sidak's test, *, p<0.05. FIG. 19B: Response to a light air puff stimulus alone in mice following i.p. administration of either saline or 2 mg/kg midazolam treatment. Responses are expressed as percent of startle response to a 125 dB noise. Two-way ANOVA with post-hoc Sidak's test, *, p<0.05. FIG. 19C: Magnitude of startle response to a 125 dB noise in mice following i.p. administration of either saline or 2 mg/kg midazolam treatment. Responses are expressed as percent of startle response to a 125 dB noise. Two-way ANOVA with post-hoc Sidak's test, *, p<0.05. FIG. 19D: Magnitude of startle response to a 125 dB noise in mice following i.p. administration of saline, midazolam (2 mg/kg) or a peripherally-restricted GABAA receptor agonist, isoguvacine (2 mg/kg). Responses are expressed as percent of startle response to a 125 dB noise. Two-way ANOVA with post-hoc Sidak's test, *, p<0.05. FIGS. 19E-19G: Liquid chromatography mass spectrometry (LC-MS) quantified isoguvacine concentrations in cerebrospinal fluid (CSF) (FIG. 19E), blood (FIG. 19F) or liver (FIG. 19G) samples of mice treated with: i.p. saline, i.p. isoguvacine (“Iso.”, 20 mg/kg, samples collected 1, 3 or 24 hours post-injection), intracerebral injection isoguvacine (20 mg/kg, 1 hour post-injection), i.p. diazepam (“DZ”, 20 mg/kg, 1 hour post injection) or intracerebral injection diazepam (20 mg/kg, 1 hour post injection). FIG. 19H: Normalized peak chloride flux through α1β3γ2- and α2β3γ2-containing GABAA receptors in response to isoguvacine application. […] FIGS. 19I-19K: GABAA receptor subunit RNA expression levels across peripheral somatosensory neuron subtypes, for the alpha (FIG. 19I), beta (FIG. 19J), and gamma (FIG. 19K) subunit types. […] Two-way ANOVA with post-hoc Sidak's test, *, p<0.05. FIG. 19M: Response to a light air puff stimulus alone in mice following i.p. administration of either saline or 2 mg/kg isoguvacine treatment. Responses are expressed as percent of startle response to a 125 dB noise. Two-way ANOVA with post-hoc Sidak's test, *, p<0.05. FIG. 19N: Magnitude of startle response to a 125 dB noise in mice following i.p. administration of either saline or 2 mg/kg isoguvacine treatment. Responses are expressed as percent of startle response to a 125 dB noise. Two-way ANOVA with post-hoc Sidak's test, *, p<0.05.
Results of the GABAA receptor restoration experiments raised the possibility that pharmacological treatment with a GABAA receptor agonist may improve tactile reactivity in Mecp2 mutant mice. It was therefore tested whether benzodiazepines, which are positive allosteric modulators (PAMs) of GABAA receptors, would attenuate hairy skin hypersensitivity in Mecp2 mutant mice. Advillin^Cre; Mecp2^f/y mutant mice and their control littermates were administered either vehicle alone or the benzodiazepine midazolam (2 mg/kg, i.p.) in a pseudorandomized manner, and then subjected to tactile PPI. On the following day, treatment regimens were reversed, and tactile PPI was repeated.
While traditional blood-brain barrier (BBB) penetrating benzodiazepines and non-benzodiazepine GABAA receptor PAMs are useful for treating some ASD-related symptoms in patients, including acute anxiety, significant adverse effects including sedation and addictive potential are common (Gudex, 1991). Furthermore, long-term benzodiazepine use is linked to cognitive impairment across multiple domains, including short-term verbal memory and attention (Golombok et al., 1988; Tata et al., 1994), leading to general reluctance within the medical community for prescribing benzodiazepines and other GABAA receptor PAMs to young children (Howes et al., 2018). […]

Row | Compound | Historical nH (Transporter, GABA [1]) | IC50 (Transporter, GABA [1]) | Ki (Transporter, GABA [1]) | IC50 (Transporter, GABA [2]) | tactile sensitivity (tactile PPI) ([3]; Advillin^Cre, Mecp2^f/y mutants and controls) | reduction in startle amplitude (sedation) ([3]; all mice, 125 dB noise)
1 | O=C(O)C1=CCCN(CCON=C(c2ccccc2)c2ccccc2)C1 [NO-711] | 1.10 | 0.2 µM | 0.2 µM | 0.17 µM | – | –
2 | Cc1ncc2n1-c1ccc(Cl)cc1C(c1ccccc1F)=NC2 [midazolam] | – | – | – | – | significantly attenuated tactile sensitivity | ~50%
